Our source for the inhibition in vivo and Activity values is ChEMBL document CHEMBL3272154, “Synthesis of 1- and 2-substituted indazoles as anthelmintic agents” (1976).

Calls of active or inactive are those of the source. The rule behind the calls is not given here.

Test [1] has as its system Trichinella spiralis. Briefly: Anthelmintic activity against Trichinella spiralis infected in mouse assessed as reduction in nematode level at 25 mg/kg, po and 25 mg/kg, sc administered 8 hrs post infection. The test is classed as functional.
Test [2] has as its system Trichinella spiralis. Briefly: Anthelmintic activity against Trichinella spiralis infected in sheep assessed as reduction in intestinal nematode burden at 15 mg/kg, po after 7 days post dose. As to conditions: 168 h. The test is classed as functional.
Test [3] concerns Trichinella spiralis. Briefly: Anthelmintic activity against Trichinella spiralis infected in sheep assessed as reduction in intestinal nematode burden at 25 mg/kg, po after 7 days post dose. The format is functional. As to conditions: 168 h.
In test [4] the test system is Trichinella spiralis. Briefly: Anthelmintic activity against Trichinella spiralis infected in po dosed sheep assessed as reduction in intestinal nematode burden. The test is classed as functional, organism-based.

One may read the inhibition in vivo as the drop in the measured response relative to a control, in per cent. Take `CCCCCCN(C)C(=O)n1ncc2ccc([N+](=O)[O-])cc21`: in test [1], the inhibition in vivo at 25 mg/kg amounted to 41%.

Regarding `COC(=O)n1ncc2ccccc21`, in test [1], the inhibition in vivo at 25 mg/kg turned out to be 23%. The same measure, in the same setting: with `O=C(c1cnc2ccccc2n1)n1cc2ccccc2n1` the figure was 36%. Turning to `O=C(OCc1ccccc1)n1cc2ccccc2n1`, the inhibition in vivo at 15 mg/kg in test [2] stood at 0%. Besides, the inhibition in vivo at 25 mg/kg in test [1] turned out to be 74%.

Turning to `CCCCCCCN(C)C(=O)Nc1nc2ccccc2[nH]1`, the inhibition in vivo at 15 mg/kg in test [2] amounted to 0%. For the same compound, in test [1], the inhibition in vivo at 25 mg/kg came out at 14%. Take `CCCCCCCN(C)C(=O)n1cc2ccccc2n1`: the inhibition in vivo at 15 mg/kg in test [2] is 0%. Besides, the inhibition in vivo at 25 mg/kg in test [1] is 45%. Regarding `O=C(Nc1nc2ccccc2[nH]1)c1ccco1`, the inhibition in vivo at 25 mg/kg in test [3] came out at 99%. As for `COC(=O)n1cc2ccccc2n1`, the inhibition in vivo at 25 mg/kg in test [1] worked out at 26%.

Take `CCCCc1ccc2[nH]c(NC(=O)OC)nc2c1` [PARBENDAZOLE]: the inhibition in vivo at 25 mg/kg in test [3] and in test [1] was 99% each time.

For the compound `O=C(c1ccco1)n1ncc2ccccc21`, the inhibition in vivo at 15 mg/kg in test [2] was 0%. Further, the inhibition in vivo at 25 mg/kg in test [1] turned out to be 16%. Consider `CCCCCCCN(C)C(=O)n1nc2ccccc2n1`, for which, in test [4], the result was Active.

With `O=C(c1ccco1)n1cc2ccccc2n1`, the inhibition in vivo at 15 mg/kg in test [2] was 0%. For the same compound, in test [1], the inhibition in vivo at 25 mg/kg was found to be 58%. Consider `CCCCCCN(C)C(=O)n1cc2cc(Cl)ccc2n1`, for which, in test [1], the inhibition in vivo at 25 mg/kg is 40%. `COC(=O)Nc1nc2ccccc2[nH]1` [CARBENDAZIM]: the inhibition in vivo at 25 mg/kg in test [3] is 98%; in test [1] it was 0%.
